# Source: ChEMBL document CHEMBL5104158, “Synthesis and human monoamine oxidase inhibitory activity of novel C2-, C3- and C4-substituted phthalonitriles” (Bioorg Med Chem Lett, 2022)
# Experiments:
# Homo sapiens = species: Homo sapiens; test: Selectivity index, ratio of IC50 for inhibition of human MAO-A to IC50 for inhibition of human MAO-B
# [1] = molecular target: T1, Amine oxidase [flavin-containing] A (Homo sapiens, UniProt P21397); test: Inhibition of human MAO-A assessed as inhibition of H2O2 production using p-tyramine as substrate
# T1 sequence (P21397 whole entry): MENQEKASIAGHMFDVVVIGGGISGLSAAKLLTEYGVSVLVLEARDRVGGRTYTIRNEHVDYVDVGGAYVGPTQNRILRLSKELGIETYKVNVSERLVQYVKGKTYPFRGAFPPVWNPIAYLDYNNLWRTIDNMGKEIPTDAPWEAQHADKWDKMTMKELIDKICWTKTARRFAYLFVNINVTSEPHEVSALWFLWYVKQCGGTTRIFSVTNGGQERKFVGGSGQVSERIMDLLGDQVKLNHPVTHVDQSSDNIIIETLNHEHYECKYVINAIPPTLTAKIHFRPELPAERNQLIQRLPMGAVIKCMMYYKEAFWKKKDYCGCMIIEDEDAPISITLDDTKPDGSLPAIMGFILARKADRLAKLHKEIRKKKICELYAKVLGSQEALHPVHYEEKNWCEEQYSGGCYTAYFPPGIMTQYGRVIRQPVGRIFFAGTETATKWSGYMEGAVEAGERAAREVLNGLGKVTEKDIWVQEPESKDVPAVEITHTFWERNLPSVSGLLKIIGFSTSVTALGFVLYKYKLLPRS
# [2] = molecular target: T2, Amine oxidase [flavin-containing] B (Homo sapiens, UniProt P27338); test: Inhibition of human MAO-B assessed as inhibition of H2O2 production using p-tyramine as substrate
# T2 sequence (P27338 whole entry): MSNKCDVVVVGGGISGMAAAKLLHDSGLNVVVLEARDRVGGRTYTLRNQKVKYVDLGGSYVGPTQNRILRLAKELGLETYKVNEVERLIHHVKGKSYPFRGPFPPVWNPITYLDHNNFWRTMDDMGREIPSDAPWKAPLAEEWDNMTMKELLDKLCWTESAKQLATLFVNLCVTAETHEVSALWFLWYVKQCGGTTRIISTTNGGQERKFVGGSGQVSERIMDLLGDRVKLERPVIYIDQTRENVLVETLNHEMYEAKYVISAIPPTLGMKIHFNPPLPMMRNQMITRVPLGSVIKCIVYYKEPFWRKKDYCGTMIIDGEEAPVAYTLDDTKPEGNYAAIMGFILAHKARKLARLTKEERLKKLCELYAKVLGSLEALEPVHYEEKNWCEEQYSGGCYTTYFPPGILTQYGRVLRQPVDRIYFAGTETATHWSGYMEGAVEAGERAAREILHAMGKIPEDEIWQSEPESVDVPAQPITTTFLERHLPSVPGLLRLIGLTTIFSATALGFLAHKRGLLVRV
# [3] = molecular target: T1, Amine oxidase [flavin-containing] A; test: Inhibition of human MAO-A assessed as inhibition of H2O2 production using p-tyramine as substrate at 100 uM
# [4] = molecular target: T2, Amine oxidase [flavin-containing] B; test: Reversible inhibition of human MAO-B assessed as enzyme residual activity using p-tyramine as substrate measured after dialysis by dialysis method
# [5] = molecular target: T2, Amine oxidase [flavin-containing] B; test: Inhibition of human MAO-B assessed as enzyme residual activity using p-tyramine as substrate
# [6] = molecular target: T2, Amine oxidase [flavin-containing] B; test: Mixed competitive inhibition of human MAO-B using p-tyramine as substrate by Lineweaver-Burk plot analysis
Compound,Ratio IC50 (Homo sapiens),IC50 [1],IC50 [2],inhibition at 100 µM [3],Activity [4],Activity [5],Ki [6]
CC(=O)Oc1ccc(-c2ccccc2)cc1/N=N/c1ccc(C#N)c(C#N)c1,> 26.2,,3.82 µM,27%,,,
COc1cc(S)c(/N=N/c2cccc(C#N)c2C#N)cc1OC,0.22,17.8 µM,80.3 µM,,,,
COc1cc(S)c(/N=N/c2ccc(C#N)c(C#N)c2)cc1OC,75.2,55.6 µM,0.74 µM,,83.3%,34.8%,0.0775 µM

# Second part, the molecule after the results:
Ratio IC50 (Homo sapiens),IC50 [1],IC50 [2],inhibition at 100 µM [3],Activity [4],Activity [5],Ki [6],Compound
42,29.4 µM,0.7 µM,,,,,N#Cc1ccc(/N=N/c2cc(-c3ccccc3)ccc2O)cc1C#N
0.62,0.89 µM,1.44 µM,,,,,COc1ccc(/N=N/c2ccc(C#N)c(C#N)c2)cc1-c1ccccc1
0.69,0.78 µM,1.12 µM,,,,,N#Cc1ccc(/N=N/c2ccc(O)c(-c3ccccc3)c2)cc1C#N
